In patent publication US9938273B2 (Plexxikon Inc., priority 2015, dated 2018):

Columns and labels:
FLT3-D835Y = target: T1, FLT3-D835Y (Homo sapiens, UniProt P36888, D835Y); assay: AlphaScreen kinase assay with recombinant enzyme, FLT3-D835Y; assay type: biochemical; conditions: 8pt, GMean
T1 construct: purchased Invitrogen PV3967
T1 sequence (P36888 27-993 D835Y): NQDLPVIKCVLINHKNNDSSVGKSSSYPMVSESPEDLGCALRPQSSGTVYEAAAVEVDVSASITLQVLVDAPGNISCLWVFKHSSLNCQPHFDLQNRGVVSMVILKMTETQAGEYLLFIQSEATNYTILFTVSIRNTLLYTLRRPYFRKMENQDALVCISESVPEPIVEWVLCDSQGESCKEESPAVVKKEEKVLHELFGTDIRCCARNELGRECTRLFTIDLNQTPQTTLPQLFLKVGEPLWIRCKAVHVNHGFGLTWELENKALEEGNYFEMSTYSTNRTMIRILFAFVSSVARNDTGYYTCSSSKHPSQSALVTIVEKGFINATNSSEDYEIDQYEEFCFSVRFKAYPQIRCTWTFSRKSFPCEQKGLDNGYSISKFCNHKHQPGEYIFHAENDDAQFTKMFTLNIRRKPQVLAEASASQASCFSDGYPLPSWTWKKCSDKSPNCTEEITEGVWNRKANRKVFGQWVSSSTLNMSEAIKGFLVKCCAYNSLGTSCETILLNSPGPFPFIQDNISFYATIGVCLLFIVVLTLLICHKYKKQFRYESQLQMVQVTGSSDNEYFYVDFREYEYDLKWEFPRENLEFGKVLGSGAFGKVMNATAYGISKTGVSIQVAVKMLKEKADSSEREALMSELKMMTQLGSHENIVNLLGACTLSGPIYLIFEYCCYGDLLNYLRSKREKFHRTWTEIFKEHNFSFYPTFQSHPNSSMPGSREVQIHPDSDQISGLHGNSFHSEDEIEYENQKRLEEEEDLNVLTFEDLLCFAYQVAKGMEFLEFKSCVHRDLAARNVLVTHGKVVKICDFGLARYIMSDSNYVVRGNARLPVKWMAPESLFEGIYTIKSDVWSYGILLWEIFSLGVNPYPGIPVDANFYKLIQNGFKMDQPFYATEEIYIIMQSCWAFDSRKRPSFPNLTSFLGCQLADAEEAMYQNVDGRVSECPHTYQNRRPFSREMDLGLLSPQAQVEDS
Outline: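 Read-out: AlphaScreen proximity signal at 580 nm (680 nm excitation), lost as peptide tyrosine phosphorylation falls. Substrate Biotin-GG(EEEEY)10EE at 30 nM; IC50 runs at 10 μM (FLT3 mutants) or 100 μM (c-KIT) final. Donor beads 20 min, then acceptor beads 60 min, room temperature.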

[1] = tested on: MOLM-14 F691L cells, FLT3 ITD and FLT3 F691L; assay: Cell proliferation assay (CellTiter-Glo), MOLM-14 F691L; assay type: cell-based; conditions: Homo sapiens, 72 h, 3d-Growth, GMean
Outline: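 Three-day growth at 37 °C, 5% CO2 under compound (1 μM top final, 1:3 dilutions, eight points, 0.2% DMSO), read as ATP luminescence by CellTiter-Glo for IC50. Cells: MOLM-14 with FLT3 ITD plus D835Y or F691L, and IL-3-deprived Ba/F3 transfected with FLT3 ITD/D835Y, 1×10^4 per well.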

Row | SMILES | IC50 (FLT3-D835Y) | IC50 [1]
1 | Cc1nn(C(C)C)cc1-c1cc2cc(-c3cccc(C(=O)NC(C)(C)C#N)n3)cnc2[nH]1 [Compound P-0178, N-(1-cyano-1-methyl-ethyl)-6-[2-(1-isopropyl-3-methyl-pyrazol-4-yl)-1H-pyrrolo[2,3-b]pyridin-5-yl]pyridine-2-carboxamide] | 0.0001 to 10 µM | 0.0001 to 10 µM
2 | CC(C)(C#N)NC(=O)c1cccc(-c2cnc3[nH]c(C4=CCSCC4)cc3c2)n1 [Compound P-0180, N-(1-cyano-1-methyl-ethyl)-6-[2-(3,6-dihydro-2H-thiopyran-4-yl)-1H-pyrrolo[2,3-b]pyridin-5-yl]pyridine-2-carboxamide] | 0.0001 to 10 µM | 0.0001 to 10 µM
3 | CC(C)(C#N)NC(=O)c1cccc(-c2cnc3[nH]c(C4=CCN(C(=O)C5CC5)CC4)cc3c2)n1 [Compound P-0181, N-(1-cyano-1-methyl-ethyl)-6-[2-[1-(cyclopropanecarbonyl)-3,6-dihydro-2H-pyridin-4-yl]-1H-pyrrolo[2,3-b]pyridin-5-yl]pyridine-2-carboxamide] | 0.0001 to 10 µM | 0.0001 to 10 µM
4 | CC(C)(C#N)NC(=O)c1cccc(-c2cnc3[nH]c(C4=CCNCC4)cc3c2)n1 [Compound P-0182, N-(1-cyano-1-methyl-ethyl)-6-[2-(1,2,3,6-tetrahydropyridin-4-yl)-1H-pyrrolo[2,3-b]pyridin-5-yl]pyridine-2-carboxamide] | 0.0001 to 10 µM | 0.0001 to 10 µM
5 | CC(C)(C#N)NC(=O)c1cccc(-c2cnc3[nH]c(-c4cn[nH]c4)cc3c2)n1 [Compound P-0183, N-(1-cyano-1-methyl-ethyl)-6-[2-(1H-pyrazol-4-yl)-1H-pyrrolo[2,3-b]pyridin-5-yl]pyridine-2-carboxamide] | 0.0001 to 10 µM | 0.0001 to 10 µM
6 | CC(C)(C#N)NC(=O)c1cccc(-c2cnc3[nH]c(-c4cnn(C5CCNCC5)c4)cc3c2)n1 [Compound P-0187, N-(1-cyano-1-methyl-ethyl)-6-[2-[1-(4-piperidyl)pyrazol-4-yl]-1H-pyrrolo[2,3-b]pyridin-5-yl]pyridine-2-carboxamide] | 0.0001 to 10 µM | 0.0001 to 10 µM
7 | CC(C)(C#N)NC(=O)c1cccc(-c2cnc3[nH]c(C4=CCN(S(=O)(=O)C5CC5)CC4)cc3c2)n1 [Compound P-0188, N-(1-cyano-1-methyl-ethyl)-6-[2-(1-cyclopropylsulfonyl-3,6-dihydro-2H-pyridin-4-yl)-1H-pyrrolo[2,3-b]pyridin-5-yl]pyridine-2-carboxamide] | 0.0001 to 10 µM | 0.0001 to 10 µM

The remaining lines, values ahead:

Row | IC50 (FLT3-D835Y) | IC50 [1] | SMILES
8 | 0.0001 to 10 µM | 0.0001 to 10 µM | CC(C)(C#N)NC(=O)c1cccc(-c2cnc3[nH]c(-c4ccc(C5CC5)nc4)cc3c2)n1 [Compound P-0168, N-(1-cyano-1-methyl-ethyl)-6-[2-(6-cyclopropyl-3-pyridyl)-1H-pyrrolo[2,3-b]pyridin-5-yl]pyridine-2-carboxamide]
9 | 0.0001 to 10 µM | 0.0001 to 10 µM | Cc1nc(C(C)C)sc1-c1cc2cc(-c3cccc(C(=O)NC(C)(C)C#N)n3)cnc2[nH]1 [Compound P-0169, N-(1-cyano-1-methyl-ethyl)-6-[2-(2-isopropyl-4-methyl-thiazol-5-yl)-1H-pyrrolo[2,3-b]pyridin-5-yl]pyridine-2-carboxamide]
10 | 0.0001 to 10 µM | 0.0001 to 10 µM | CC(C)(C#N)NC(=O)c1cccc(-c2cnc3[nH]c(-c4cnn(CCC#N)c4)cc3c2)n1 [Compound P-0170, 6-[2-[1-(2-cyanoethyl)pyrazol-4-yl]-1H-pyrrolo[2,3-b]pyridin-5-yl]-N-(1-cyano-1-methyl-ethyl)pyridine-2-carboxamide]
11 | 0.0001 to 10 µM | 0.0001 to 10 µM | CC(C)(C#N)NC(=O)c1cccc(-c2cnc3[nH]c(-c4cnn(Cc5ccccc5)c4)cc3c2)n1 [Compound P-0171, 6-[2-(1-benzylpyrazol-4-yl)-1H-pyrrolo[2,3-b]pyridin-5-yl]-N-(1-cyano-1-methyl-ethyl)pyridine-2-carboxamide]
12 | 0.0001 to 10 µM | 0.0001 to 10 µM | COCCn1cc(-c2cc3cc(-c4cccc(C(=O)NC(C)(C)C#N)n4)cnc3[nH]2)cn1 [Compound P-0172, N-(1-cyano-1-methyl-ethyl)-6-[2-[1-(2-methoxyethyl)pyrazol-4-yl]-1H-pyrrolo[2,3-b]pyridin-5-yl]pyridine-2-carboxamide]
13 | 0.0001 to 10 µM | 0.0001 to 10 µM | CC(C)(C#N)NC(=O)c1cccc(-c2cnc3[nH]c(-c4cnn(C5CCOC5)c4)cc3c2)n1 (stereo not drawn) [Compound P-0173, N-(1-cyano-1-methyl-ethyl)-6-[2-(1-tetrahydrofuran-3-ylpyrazol-4-yl)-1H-pyrrolo[2,3-b]pyridin-5-yl]pyridine-2-carboxamide]
14 | 0.0001 to 10 µM | 0.0001 to 10 µM | CC(C)(C#N)NC(=O)c1cccc(-c2cnc3[nH]c(-c4cnn(CCN5CCOCC5)c4)cc3c2)n1 [Compound P-0174, N-(1-cyano-1-methyl-ethyl)-6-[2-[1-(2-morpholinoethyl)pyrazol-4-yl]-1H-pyrrolo[2,3-b]pyridin-5-yl]pyridine-2-carboxamide]
15 | 0.0001 to 10 µM | 0.0001 to 10 µM | CC(C)(C#N)NC(=O)c1cccc(-c2cnc3[nH]c(C#Cc4ccccc4)cc3c2)n1 [Compound P-0176, N-(1-cyano-1-methyl-ethyl)-6-[2-(2-phenylethynyl)-1H-pyrrolo[2,3-b]pyridin-5-yl]pyridine-2-carboxamide]
